For assay [1], the system named is patients with moderate to severe atopic dermatitis. The assay is described as follows: Phase 2 randomized, double-blind, placebo-controlled clinical study of ICP-332 in atopic dermatitis patients. Type of assay: in vivo, human. Conditions: Week 4.
Assay [2] has the same test system. The assay is described as follows: EASI-75 (difference from placebo) of ICP-332 versus other drugs for treating AD as monotherapy, not head-to-head. Type of assay: in vivo, human. Conditions: ICP-332 4 weeks, other drugs 12 or 16 weeks, approved recommended doses, phase III published literature. The text has this: The treatment period for ICP-332 was 4 weeks, while it was 12 or 16 weeks for other drugs with their approved recommended doses from phase III studies. The data of other drugs are based on available published literature.
This is a randomized, double-blind, placebo-controlled, phase 2 study to evaluate the safety, efficacy, pharmacokinetics, and pharmacodynamics of ICP-332 (Compound A) in patients with moderate to severe atopic dermatitis.
A total of 75 subjects with 25 subjects in each group are enrolled. • (1) ICP-332 80 mg, QD for 28 days (40 mg*2 tablets+Placebo*1 tablet) • (2) ICP-332 120 mg. QD for 28 days (40 mg*3 tablets) • (3) Placebo. QD for 28 days (Placebo*3 tablets)

As for `Cn1cc(Nc2ncc(Cl)c(N3C[C@@H]4CN(C(=O)CC#N)C[C@]4(C)C3)n2)cn1` [ICP-332], in assay [1] (80 mg qd oral), the “EASI 50, EASI 75, EASI 90, IGA 0/1” value is recorded as “significant improvements” and the “percent change from baseline in EASI total score” value is “significantly reduced the EASI total score (p<0.0001)”. Besides, in assay [1] (120 mg qd oral), the “EASI 50, EASI 75, EASI 90, IGA 0/1” value is recorded as “significant improvements” and the “percent change from baseline in EASI total score” value is “significantly reduced the EASI total score (p<0.0001)”. Moreover, in assay [2], the “EASI-75 (difference from placebo) versus other drugs” value was “best EASI-75 value over placebo”.

(Values after US20260355197A1, “METHOD FOR TREATING ATOPIC DERMATITIS” (BEIJING INNOCARE PHARMA TECH CO., LTD., priority 2023, published 2026).)
